The values below come from patent US20070197577A1 (priority 2003, published 2007).

The test system of one data set is anthrax. Conditions: monkey, in vivo; cited from earlier work.

For the molecule `O=C(O)c1cn(C2CC2)c2cc(N3CCNCC3)c(F)cc2c1=O` [ciprofloxacin], in the data set with anthrax, the “monkeys that survived a lethal aerosol challenge” value was 8 of 9.

With penicillin, the “monkeys that survived a lethal aerosol challenge” value in the data set on anthrax was 7 of 10.

As to `CC(C)CC(NCC(=O)NO)C(=O)NC(Cc1ccc2ccccc2c1)C(=O)NC(C)C(N)=O` (stereo not shown), the melting point (commonly the temperature of the solid-liquid transition) is 205 to 212 °C.

Consider `O=C(O)c1cccc(N(CCc2ccccc2)c2nnc(-c3cccc(Oc4cccc(C(F)(F)F)c4)c3)s2)c1`, for which the melting point lay within 92 to 93 °C.
